Experimental data as given in US6391871B1 (priority 1996, dated 2002).
“Also recorded” adds a separate entry of the source. Like-named read-outs stand apart in the source and are kept apart here.

Assays:
vacuolated PC/RS neurons = experiment: Safener assay: prevention of MK-801-induced vacuole formation in PC/RS neurons; conditions: for ED50: 4 h; for blocking of MK-801 neurotoxicity / vacuole formation: tested against MK-801
Method: For each test agent, at least 5 dosages of the candidate safener agent were tested, and at least 4 rats were used in each dosage group.
The rats were sacrificed four hours after treatment, for histopathological evaluation. The number of vacuolated PC/RS neurons were counted on each side of the brain, at a rostrocaudal level immediately posterior to where the corpus callosum ceases decussating across the midline (approximately 5.6 mm caudal to bregma).
The result was subtracted from one and multiplied by 100, to calculate a percentage.
The confidence limits, in the right column, were the safener dosages that reduced vacuoles by 25% and 75%.

[1] = test system: neurons in neocortical and limbic brain regions; experiment: Histopathology of rat brain after PCP/pilocarpine treatment; format: in vivo; conditions: even at very high dosages
Method: Adult female rats were injected subcutaneously with an NMDA antagonist drug, phencyclidine (PCP), at 50 milligrams of drug per kilogram of body weight (mg/kg sc), accompanied by a small dose of a muscarinic agonist, pilocarpine (10 mg/kg sc). At various times (4, 16, 24, 48, 72 and 96 hours) after treatment, the rats were anesthetized and perfused with fixative to allow their brains to be prepared for histological evaluation.
Degenerating neurons in various brain regions were also examined by electron microscopy, to obtain evidence for loss of synaptic complexes, and a computer-assisted cell plotting system was used to plot the location and count the frequency with which degenerating neurons were found in each brain region.
Massive loss of neurons throughout many neocortical and limbic brain regions is a hallmark characteristic of Alzheimer's disease. To establish that the NR/hypo mechanism results not only in cell injury but in cell death, the Applicants systematically examined the brains of rats 4 days following PCP/pilocarpine treatment. Sections prepared at 1 millimeter intervals from one side of the brain were stained, using hematoxylin and eosin; sections prepared at 1 millimeter intervals from the other side of the brain were stained using a silver impregnation stain. […]

NMDA receptors = format: cell-based, chick
Method: Potency rating=minimum concentration required to provide total protection against neurotoxic effects of NMDA (40 μM) in chick embryo retinal tissue tests
These experiments were performed using segments of chick embryo retina. This is a widely used model for studying the production and prevention of excitotoxic phenomena, since it is a simple and inexpensive preparation, and since chick tissue provides a better model of adult mammalian neurons than embryonic or juvenile mammalian tissue. All of the glutamate receptors that mediate excitotoxic phenomena are present in chick retinas, and are sensitive to excitotoxic stimulation. By contrast, in embryonic or juvenile mammalian tissue, various glutamate receptors are not fully matured and are not responsive in the same ways that occur in adult mammalian tissue.
In these tests, NMDA is introduced into the incubation medium in a concentration ([…]) sufficient to produce a fully developed excitotoxic lesion within 30 min, displaying acute degeneration and necrosis of the majority of neurons in the inner layers of the retina. The control retinas are incubated with NMDA alone, and experimental retinas are incubated with NMDA plus a test compound that is being evaluated for NMDA antagonist properties. […] All agents that prevent NMDA from hyperactivating NMDA receptors and thereby inducing an excitotoxic neurodegenerative reaction in the chick embryo retina are considered appropriate candidate drugs for preventing NMDA receptor hyperactivation and NMDA receptor burnout in the presymptomatic stages of Alzheimer's disease.
The concentration of the test compound required to prevent NMDA from inducing neuronal degeneration in the chick retina tissue is considered a measure of its expected potency for preventing NMDA receptor hyperactivation and NMDA receptor burnout in the presymptomatic stages of Alzheimer's disease.

[2] = test system: pyramidal neurons in layers III and IV of the posterior cingulate and retrosplenial (PC/RS) cortices; experiment: In vivo assay of toxic side effects of NMDA antagonists (vacuole formation in PC/RS cortex)
sigma receptors = conditions: cited from earlier work
cerebrocortical neurons = conditions: Olney et al 1989, Corso et al 1994; cited from earlier work
[3] = test system: pyramidal neurons in layers III and IV of the posterior cingulate and retrosplenial (PC/RS) cortices; conditions: rat, in vivo; for neurotoxic (vacuole) reaction in PC/RS cortex, drug by itself: ip
[4] = test system: NMDA receptors in the hypothalamus; experiment: NMDA receptor hyperactivation in the hypothalamic-pituitary neuroendocrine regulatory system; conditions: for damage to the reproductive regulatory (NMDA receptor) system: high dose, rats
Method: The explanation for this is that normally, neurons in the hypothalamus that have NMDA receptors on their surface are activated by the excitatory transmitter, glutamate, which causes them to send a message to the pituitary resulting in pituitary release of LH. When NMDA is administered, it enters the hypothalamus and mimics glutamate by acting at the same NMDA receptors that glutamate would activate. This triggers the same sequence of events that glutamate would normally trigger. The action of glutamate at these NMDA receptors represents a physiological mechanism by which glutamate normally regulates the amount of reproductive hormones (e.g., LH) that circulate in the blood. For a detailed review describing this neuroendocrine regulatory system, see Olney and Price 1978.
These excitotoxic molecules (NMDA or glutamate) enter the hypothalamus and hyperactivate NMDA receptors so vigorously and continuously that it destroys the NMDA receptor system, and leaves it permanently unresponsive to subsequent stimulation, either by exogenously administered NMDA, or by endogenous glutamate.
Affected animals develop a neuroendocrine deficiency syndrome, which leads to symptoms such as obesity, sterility, and ongoing degeneration of their reproductive organs.

[5] = dose reducing mean number of vacuolated PC/RS neurons to 50% of MK-801 (0.5 mg/kg sc) controls, rats
[6] = NMDA 40 μM, chick embryo retinal tissue

Compound: CN1CCN(C2=Nc3cc(F)ccc3Cc3ccccc32)CC1 [Fluperlapine]
- ED50 (vacuolated PC/RS neurons; Rattus norvegicus, Neuron, sc): 2.4 mg/kg

Compound: Cc1cc2c(s1)Nc1ccccc1N=C2N1CCN(C)CC1 [Olanzapine]
- ED50 (vacuolated PC/RS neurons; Rattus norvegicus, Neuron, sc): 0.6 mg/kg

Compound: CC[C@@H]1C(=O)OC[C@@H]1Cc1cncn1C [pilocarpine]
- brain damage by pilocarpine by itself [1]: does not and cannot cause the type of damage observed in these tests

Compound: Clc1cc(I)cc(Cl)c1NC1=NCCN1 [p-Iodoclonidine]
- ED50 (vacuolated PC/RS neurons; [5]): 1.3 mg/kg, ip

Compound: O=C(CCCN1CCC(O)(c2ccc(Cl)cc2)CC1)c1ccc(F)cc1 [Haloperidiol]
- ED50 (vacuolated PC/RS neurons; Rattus norvegicus, Neuron, sc): 5.1 mg/kg

Compound: O=C(O)C1CN(CCCP(=O)(O)O)CCN1 (stereo not drawn) [CPP]
- POTENCY RATING = minimum concentration required to provide total protection against neurotoxic effects of NMDA (NMDA receptors; [6]): 10 µM

Compound: CCCC(C)C1(CC)C(=O)NC(=O)NC1=O (stereo not drawn) [Pentobarbital]
- ED50 (vacuolated PC/RS neurons; Rattus norvegicus, Neuron, sc): 13.1 mg/kg

Compound: CCN(CC)C(=O)N[C@H]1C=C2c3cccc4[nH]cc(c34)C[C@H]2N(C)C1 [Lisuride]
- blocking of MK-801 neurotoxicity / vacuole formation (vacuolated PC/RS neurons): block MK-801 toxicity

Compound: FC(F)OC(Cl)C(F)(F)F (stereo not drawn) [isoflurane]
- blocking of MK-801 neurotoxicity / vacuole formation (vacuolated PC/RS neurons): effectively block vacuole formation

Compound: Clc1cccc(Cl)c1N=C1NCCN1 [Clonidine]
- ED50 (vacuolated PC/RS neurons; Rattus norvegicus, Neuron, sc): 0.044 mg/kg

Compound: CC(C(O)c1ccc(O)cc1)N1CCC(Cc2ccccc2)CC1 (stereo not drawn) [Ifenprodil]
- POTENCY RATING = minimum concentration required to provide total protection against neurotoxic effects of NMDA (NMDA receptors): 50 µM

Compound: CC(Oc1c(Cl)cccc1Cl)C1=NCCN1 (stereo not drawn) [Lofexidine]
- ED50 (vacuolated PC/RS neurons; Rattus norvegicus, Neuron, sc): 0.38 mg/kg

Compound: CC(C)c1cccc(C(C)C)c1O [propofol]
- blocking of MK-801 neurotoxicity / vacuole formation (vacuolated PC/RS neurons): effectively block vacuole formation

Compound: N=C(N)N/N=C/c1c(Cl)cccc1Cl [Guanabenz]
- ED50 (vacuolated PC/RS neurons; Rattus norvegicus, Neuron, sc): 0.21 mg/kg

Compound: COc1cc(CC(C)N)c(OC)cc1I (stereo not drawn) [DOI]
- ED50 (vacuolated PC/RS neurons; [5]): 1.05 mg/kg, ip

Compound: O=C(O)c1cc(O)c2ccc(Cl)cc2n1 [7-CL-Kynurenic acid, 7-chloro-kynurenic acid]
- POTENCY RATING = minimum concentration required to provide total protection against neurotoxic effects of NMDA (NMDA receptors): 50 µM

Compound: C=CCN1CC[C@]2(C)c3cc(O)ccc3C[C@H]1[C@H]2C [SKF (+)10,047]
- neurotoxic (vacuole) reaction in PC/RS cortex, drug by itself ([2]; adult female rats, ip, sacrificed four hours after treatment): neither SKF (+)10,047 by itself, nor eliprodil by itself, caused a vacuole reaction; also recorded: neither SKF (+)10,047 nor ibogaine by itself caused vacuoles

Compound: Ibogaine
- NMDA antagonist properties in the chick retina assay (NMDA receptors): definite NMDA antagonist properties
- POTENCY RATING = minimum concentration required to provide total protection against neurotoxic effects of NMDA (NMDA receptors; [6]): 15 µM
- binding at sigma receptors (sigma receptors): strong binding affinity at sigma receptors

Compound: C[C@@H]1CN(CCCn2c3ccccc3c3ccccc32)C[C@H](C)N1 [Rimcazole]
- ED50 (vacuolated PC/RS neurons; Rattus norvegicus, Neuron, sc): 17.8 mg/kg

Compound: C=CCC1(C(C)CCC)C(=O)NC(=O)NC1=O (stereo not drawn) [Secobarbital]
- ED50 (vacuolated PC/RS neurons; Rattus norvegicus, Neuron, sc): 15.3 mg/kg

Compound: FC(F)(F)C(Cl)Br (stereo not drawn) [halothane]
- blocking of MK-801 neurotoxicity / vacuole formation (vacuolated PC/RS neurons): effectively block vacuole formation

Compound: CN1[C@@H]2C[C@@H](OC(=O)[C@H](CO)c3ccccc3)C[C@H]1[C@@H]1O[C@@H]12 [Scopolamine]
- ED50 (vacuolated PC/RS neurons; Rattus norvegicus, Neuron, sc): 0.13 mg/kg

Compound: OC(CCN1CCCC1)(c1ccccc1)C1CCCCC1 (stereo not drawn) [Procyclidine]
- POTENCY RATING = minimum concentration required to provide total protection against neurotoxic effects of NMDA (NMDA receptors; [6]): 15 µM

Compound: N[C@H](CCCP(=O)(O)O)C(=O)O [D-AP5, D-2-amino-5-phosphonopentanoic acid]
- POTENCY RATING = minimum concentration required to provide total protection against neurotoxic effects of NMDA (NMDA receptors; [6]): 25 µM

Compound: O=C(O)[C@@H]1C[C@H](CP(=O)(O)O)CCN1 [CGS 19755]
- POTENCY RATING = minimum concentration required to provide total protection against neurotoxic effects of NMDA (NMDA receptors; [6]): 5 µM

Compound: COc1ccc2c(c1)[C@]13CCCC[C@@H]1[C@H](C2)N(C)CC3 [Dextromethorphan]
- POTENCY RATING = minimum concentration required to provide total protection against neurotoxic effects of NMDA (NMDA receptors; [6]): 25 µM

Compound: CN1C(=O)CN=C(c2ccccc2)c2cc(Cl)ccc21 [Diazepam]
- ED50 (vacuolated PC/RS neurons; Rattus norvegicus, Neuron, sc): 1 mg/kg

Compound: COc1cc(CC(C)N)c(OC)cc1Br (stereo not drawn) [DOB]
- ED50 (vacuolated PC/RS neurons; [5]): 0.36 mg/kg, ip

Compound: C[C@]12N[C@H](Cc3ccccc31)c1ccccc12 [MK-801, (+)-5-methyl-10,11-dihydro-5H-di[a,d]-cyclohepten-5,10-imine]
- neurotoxic reaction induced by MK-801 (vacuolated PC/RS neurons; MK-801 0.5 mg/kg sc, all treated rats): fully developed neurotoxic reaction

Compound: N#Cc1cc2[nH]c(=O)c(=O)[nH]c2cc1[N+](=O)[O-] [CNQX]
- POTENCY RATING = minimum concentration required to provide total protection against neurotoxic effects of NMDA (NMDA receptors): 200 µM

Compound: CCNC1(c2cccs2)CCCCC1=O (stereo not drawn) [Tiletamine]
- POTENCY RATING = minimum concentration required to provide total protection against neurotoxic effects of NMDA (NMDA receptors; [6]): 5 µM
- pathological changes in cerebral cortex / corticolimbic regions of adult rats (cerebrocortical neurons): cause pathological changes in the cerebral cortex of adult rats

Compound: CN1CCN(C2=Nc3cc(Cl)ccc3Nc3ccccc32)CC1 [Clozapine]
- ED50 (vacuolated PC/RS neurons; Rattus norvegicus, Neuron, sc): 2.8 mg/kg

Compound: O=[N+]([O-])c1cc2nc(O)c(O)nc2cc1[N+](=O)[O-] [DNQX]
- POTENCY RATING = minimum concentration required to provide total protection against neurotoxic effects of NMDA (NMDA receptors; [6]): 100 µM

Compound: OC(CCN1CCCCC1)(c1ccccc1)C1CCCCC1 (stereo not drawn) [Trihexyphenidyl]
- ED50 (vacuolated PC/RS neurons; Rattus norvegicus, Neuron, sc): 2.14 mg/kg
- binding at sigma receptors (sigma receptors): strong binding affinity not only to muscarinic receptors, but also to sigma receptors

Compound: OC(CN1CCC(Cc2ccc(F)cc2)CC1)c1ccc(Cl)cc1 (stereo not drawn) [Eliprodil]
- NMDA antagonist properties in the chick retina assay (NMDA receptors): definite NMDA antagonist properties
- POTENCY RATING = minimum concentration required to provide total protection against neurotoxic effects of NMDA (NMDA receptors): 30 µM
- neurotoxic (vacuole) reaction in PC/RS cortex, drug by itself ([3]; female, Sprague Dawley, 4 h): neither SKF (+)10,047 by itself, nor eliprodil by itself, caused a vacuole reaction
- neurotoxic reaction in the PC/RS cortex at the highest dose tested [3]: did not cause a neurotoxic reaction
- neurotoxic (vacuole) reaction in PC/RS cortex, drug by itself [3]: did not cause this neurotoxic reaction
- binding at sigma receptors (sigma receptors): strong binding activity at sigma receptors
- nearly a lethal dose (highest dose tested) ([2]; rats): 100 mg/kg/ip

Compound: CSc1ccc2c(c1)N(CCC1CCCCN1C)c1ccccc1S2 (stereo not drawn) [Thioridazine]
- ED50 (vacuolated PC/RS neurons; Rattus norvegicus, Neuron, sc): 55.3 mg/kg

Compound: N[C@@H](CCC(=O)O)C(=O)O [glutamate]
- damage to the reproductive regulatory (NMDA receptor) system [4]: permanently damage and inactivate this reproductive regulatory system

Compound: CN1[C@@H]2CC[C@H]1C[C@@H](OC(c1ccccc1)c1ccccc1)C2 [Benztropine]
- ED50 (vacuolated PC/RS neurons; Rattus norvegicus, Neuron, sc): 1.29 mg/kg

Compound: CN[C@H](CC(=O)O)C(=O)O [NMDA, n-methyl-D-aspartate]
- pituitary secretion of reproductive hormones (LH) ([4]; NMDA subcutaneously or intravenously, rodents): causing the pituitary gland to secrete into the blood certain reproductive hormones such as luteinizing hormone
- damage to the reproductive regulatory (NMDA receptor) system [4]: permanently damage and inactivate this reproductive regulatory system
